Test results published in PubChem BioAssay (NCI).
Several values for one entry are separate records, joined by “and”; a condition that tells them apart may be missing. Equal values may be shown once.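 Step 1: Grow cells in 96-well plates. Step 2: Expose to compound for 48 hours at 5 concentrations. Step 3: Interpolate endpoints linearly; if unreached, use highest concentration. The concentration for 50% growth inhibition is given as GI50. At the TGI there is no net growth.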

Key:
Experiment in all cases: inhibition of tumour cell growth, NCI panel, 48 h
[1] = tested on: MCF7 breast
[2] = tested on: HS 578T breast
[3] = tested on: T-47D breast
[4] = tested on: BT-549 breast
[5] = tested on: MDA-N
[6] = tested on: XF 498 CNS
[7] = tested on: SNB-78 CNS
[8] = tested on: DMS 273 small cell lung

Row | Compound | TGI [1] | TGI [2] | TGI [3] | TGI [4] | TGI [5] | TGI [6] | TGI [7] | TGI [8] | GI50 [1] | GI50 [2] | GI50 [3] | GI50 [4] | GI50 [7] | GI50 [8] | GI50 [6]
1 | Cc1cc(C)n(C2=NS(=O)(=O)c3ccccc3N2C)n1 | > 100 µM | > 100 µM | > 100 µM | > 100 µM | > 100 µM | – | – | – | – | – | – | – | – | – | –
2 | CCOC(=O)C1(Cc2ccc3ccccc3c2)CCCCC(=O)N1 (stereo not drawn) | – | – | – | – | – | > 100 µM | > 100 µM | 36.9 µM | – | – | – | – | – | – | –
3 | O=C1C2=C(CCC2)Nc2cccc3ncn1c23 | – | – | – | – | – | > 100 µM | > 100 µM | > 100 µM | – | – | – | – | – | – | –
4 | CCNCCNc1cc(-c2ccc(C#N)cc2)c(C#N)c2nc3ccccc3n12 | 16.2 µM | 13.9 µM | 6.39 µM | 4.91 µM | – | – | – | – | 3.59 µM | 3.49 µM | 2.34 µM | 1.9 µM | – | – | –
5 | Cc1cc2c(cc1Cl)S/C(=C/C(=O)O)C(Nc1cccc3nsnc13)=NS2(=O)=O | > 76.2 µM | > 60.7 µM | > 100 µM | 1.38 µM | – | – | – | – | 32.7 µM | 30.5 µM | > 77.8 µM | – | – | – | –
6 | COc1ccc(Nc2nccc(N3CCN(c4c5ccc(Cl)cc5nc5ccc(OC)cc45)CC3)n2)cc1 | > 100 µM | > 100 µM | 44.7 µM | > 100 µM | – | – | – | – | 3.67 µM | 5.78 µM | 2.99 µM | 14.4 µM | – | – | –
7 | COc1ccccc1NC(=O)/C(=C/c1ccccc1)C(C)=O | – | – | – | – | – | 89.5 µM | 44.6 µM | – | – | – | – | – | – | – | –
8 | COc1cc2nc(-c3ccc(C(F)(F)F)cc3)cc(OCCCN3CCCC3)c2cc1OC | 4.13 µM | 19.3 µM | 15.9 µM | 4.95 µM | – | – | – | – | 1.12 µM | 2.48 µM | 0.478 µM | 0.917 µM | – | – | –
9 | O=C1/C(=C/c2ccc([N+](=O)[O-])cc2)COc2ccc(O)cc21 | 2.8 µM | > 100 µM | > 100 µM | 50.4 µM | – | – | – | – | 1.23 µM | 3.54 µM | 9.73 µM | 18.5 µM | – | – | –
10 | CC1OC(c2ccc3c(c2O)C(=O)C2=C(C3=O)C3(O)C(=O)CC(C)(O)CC3(O)C=C2)CC(O)C1O (stereo not drawn) | 9 µM | 53.2 µM | 28.3 µM | 32.8 µM | 11.7 µM | – | – | – | – | – | – | – | – | – | –
11 | Cc1cccc(/C(Br)=C2/OC(=O)c3ccccc32)c1 | > 100 µM | > 100 µM | – | > 100 µM | > 100 µM | – | – | – | – | – | – | – | – | – | –
12 | Cc1ccc(NC(=O)/C(Cc2cc(=O)oc3cc(O)ccc23)=N\NC(=O)C[N+](C)(C)C)cc1C | > 100 µM | > 100 µM | > 100 µM | > 100 µM | > 100 µM | – | – | – | – | – | – | – | – | – | –
13 | Cc1c2ccncc2c(C)c2c1[nH]c1ccc(O)c(OCC(F)(F)F)c12 | – | – | – | – | – | 22.9 µM | 18.2 µM | 4.87 µM | – | – | – | – | – | – | –
14 | CCOC(=O)N1CCN(CCCCCOc2ccccc2C2CCCCC2)CC1 | 13.1 µM | 34.8 µM | 14.4 µM | 11.3 µM | – | – | – | – | 3.2 µM | 12.8 µM | 2.35 µM | 3 µM | – | – | –
15 | CCN(CC)c1ccc(/C=C/C2=[N+](C)c3ccccc3C2(C)C)c(C)c1 | 1.62 µM | 16.5 µM | 1.61 µM | 1.24 µM | – | – | – | – | 0.0574 µM | 0.129 µM | < 0.0272 µM | < 0.0309 µM | – | – | –
16 | CC(C)(C)NCC(COc1ccc([N+](=O)[O-])cc1)OP(c1ccccc1)c1ccccc1 (stereo not drawn) | – | – | – | – | – | 67.3 µM | > 100 µM | > 100 µM | – | – | – | – | – | – | –
17 | O=C(c1cccs1)C1NO[N+]([O-])=C1c1cccs1 (stereo not drawn) | 16.3 µM | 14.6 µM | 5.09 µM | 21.2 µM | – | – | – | – | 4.84 µM | 2.82 µM | 2.2 µM | 9.41 µM | – | – | –
18 | O=C(NCCN1CCNCC1)c1ccc(Nc2nc3ccccc3c3occc23)cc1 | > 100 µM | 38.4 µM | 35.4 µM | 18.2 µM | – | – | – | – | 30.2 µM | 14.3 µM | 5.71 µM | 2.72 µM | – | – | –
19 | N#C/C(=C1\SC(N=Nc2ccc(Cl)cc2)C(=O)N1c1ccccc1)c1nc2ccccc2[nH]1 (stereo not drawn) | – | – | – | – | – | 84.8 µM | > 100 µM | > 100 µM | – | – | – | – | – | – | –
20 | c1ccc(-c2nc(N3CCCNCC3)c3nc(-c4ccccc4)oc3n2)cc1 | 3.34 µM | 3.94 µM | 3.64 µM | – | – | – | – | – | 1.67 µM | 1.86 µM | 1.78 µM | – | – | – | –
21 | CCOc1ccc(Nc2c3ccccc3nc3ccccc23)cc1 | 4.2 µM and 4.23 µM | – | 3.78 µM and 3.83 µM | 9.51 µM and 10.2 µM | – | – | – | – | 0.318 µM and 0.297 µM | 1.23 µM and 0.29 µM | 1.34 µM and 0.916 µM | 0.478 µM and 0.556 µM | – | – | –
22 | COc1ccc(-c2c(C3=NCCCN3)nnn2-c2ccc([N+](=O)[O-])cc2)cc1 | – | – | – | – | – | – | > 100 µM | > 100 µM | – | – | – | – | – | – | –
23 | O=C(/C=C/c1cccc(O)c1)c1cccc(-n2cc(-c3ccc4ccccc4c3)[nH]c2=O)c1 | 1.83 µM | 5.9 µM | 3.84 µM | 5.14 µM | – | – | – | – | 0.471 µM | 2.01 µM | 1.11 µM | 1.89 µM | – | – | –
24 | [2H]c1nc(=Nc2cc(NC(=O)C=C)c(N(C)CCN(C)C)cc2OC)[nH]c(-c2cn(C([2H])([2H])[2H])c3ccccc23)c1[2H] | 3.23 µM | 9.74 µM | 2.83 µM | 3.25 µM | – | – | – | – | 1.39 µM | 2.59 µM | 1.07 µM | 1.52 µM | – | – | –
25 | O=C(Cl)C1=C(c2ccccc2)C1c1ccccc1 (stereo not drawn) | > 100 µM | > 100 µM | > 100 µM | > 100 µM | > 100 µM | – | – | – | – | – | – | – | – | – | –
26 | Fc1ccc2nc(-c3cc(-c4ccc5c(c4)OCO5)n[nH]3)[nH]c2c1 | > 100 µM | > 100 µM | 52.1 µM | > 25.9 µM | – | – | – | – | 3.84 µM | 9.53 µM | 3.31 µM | 1.48 µM | – | – | –
27 | N.N.N.N.N.O=S(=O)([O-])S(=O)(=O)[O-].[Co+3] | – | – | – | – | – | – | > 100 µM | > 100 µM | – | – | – | – | > 100 µM | > 100 µM | –
28 | Nc1ccccc1C(=O)C(Br)C(Br)c1ccc2c(c1)OCO2 (stereo not drawn) | – | – | – | – | – | 34 µM | 81 µM | 34 µM | – | – | – | – | – | – | –
29 | CC(C)[O-].CC(C)[O-].O=c1cccccc1[O-].O=c1cccccc1[O-].[Ti+4] | – | – | – | – | – | 97.3 µM | – | – | – | – | – | – | – | – | 33.8 µM
30 | O=C(CC1(O)C(=O)Nc2c(Cl)ccc(Cl)c21)c1ccc(Cl)cc1Cl (stereo not drawn) | – | – | – | – | – | 33.9 µM | > 100 µM | 37.8 µM | – | – | – | – | – | – | –
